Columns and labels:
[1] = Solubility / miscibility in carrier fluids; format: physicochemical
Text: In such situations, when the first fluid evaporates, the compound of interest is left in a supersaturated environment in which it is favorable for the compound to pass into a less saturated environment, in this case through the membrane. […] Accordingly, if increased flux for oxacyclohexadecan-2-one is desired, a carrier may include ethanol and propylene glycol and/or water. […] Accordingly, if increased flux for testosterone is desired, a carrier may include ethanol and water or ethanol and propylene glycol. In addition, water may be used to prevent “reverse-flux”, or the flow of water from the membrane into the matrix of the composition.

[2] = in vivo; cited from earlier work

**Q.** With C[C@]12CC[C@H]3[C@@H](CCC4=CC(=O)CC[C@@]43C)[C@@H]1CC[C@@H]2O [testosterone, 17β-hydroxyandrost-4-en-3-one] as the compound, how does the solubility / miscibility ([1]; in ethanol) read?
**A.** The solubility / miscibility was “soluble”.

**Q.** What about the solubility / miscibility ([1]; in propylene glycol) of the same compound?
**A.** The solubility / miscibility was “partially soluble”.

**Q.** And the solubility / miscibility ([1]; in water)?
**A.** Its solubility / miscibility is “not soluble”.

**Q.** And the “typical half-life in the blood serum” value [2]?
**A.** The value was 10 to 100 min.

Reference: patent publication US8063029B2, “Pharmaceutical composition” (FCB I LLC, priority 2002, dated 2011)
